{"source": "patent US7368433B2", "about": "“Peptides and methods for the control of obesity” (University of Florida Research Foundation, Inc., priority 2002, dated 2008)", "key": {"[1]": {"biological_target": "T1, human MC4R (Homo sapiens, UniProt P32245)", "T1 construct": "expressed in transfected cells; host or cells: HEK-293", "T1 sequence (P32245 whole entry)": "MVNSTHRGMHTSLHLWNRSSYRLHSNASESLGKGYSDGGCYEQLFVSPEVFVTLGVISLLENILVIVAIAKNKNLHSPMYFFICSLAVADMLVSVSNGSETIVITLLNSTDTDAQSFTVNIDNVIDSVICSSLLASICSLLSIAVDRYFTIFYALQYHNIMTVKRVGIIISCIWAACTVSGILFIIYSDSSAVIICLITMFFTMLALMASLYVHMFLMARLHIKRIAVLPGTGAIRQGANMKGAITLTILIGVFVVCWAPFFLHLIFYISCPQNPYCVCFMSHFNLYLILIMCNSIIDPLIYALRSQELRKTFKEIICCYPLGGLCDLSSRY", "settings": "literature (Yang et al 2000; Danho et al); read-out: agonist activity at the human MC4 receptor; cited from earlier work"}, "[2]": {"biological_target": "hMC3R (Homo sapiens, UniProt P41968)", "sequence (P41968 whole entry)": "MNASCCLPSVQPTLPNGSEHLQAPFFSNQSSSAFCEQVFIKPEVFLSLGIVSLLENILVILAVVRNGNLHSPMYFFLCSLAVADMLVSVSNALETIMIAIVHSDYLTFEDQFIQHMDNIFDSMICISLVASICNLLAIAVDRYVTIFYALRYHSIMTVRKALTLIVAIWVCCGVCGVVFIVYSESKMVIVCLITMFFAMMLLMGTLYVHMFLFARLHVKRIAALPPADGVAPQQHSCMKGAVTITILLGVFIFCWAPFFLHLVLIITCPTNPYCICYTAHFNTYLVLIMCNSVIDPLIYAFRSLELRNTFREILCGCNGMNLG", "settings": "literature (Danho et al); cited from earlier work"}, "[3]": {"biological_target": "T2, mMC5R (Mus musculus, UniProt P41149)", "T2 construct": "expressed in transfected cells; host or cells: HEK-293", "T2 sequence (P41149 whole entry)": "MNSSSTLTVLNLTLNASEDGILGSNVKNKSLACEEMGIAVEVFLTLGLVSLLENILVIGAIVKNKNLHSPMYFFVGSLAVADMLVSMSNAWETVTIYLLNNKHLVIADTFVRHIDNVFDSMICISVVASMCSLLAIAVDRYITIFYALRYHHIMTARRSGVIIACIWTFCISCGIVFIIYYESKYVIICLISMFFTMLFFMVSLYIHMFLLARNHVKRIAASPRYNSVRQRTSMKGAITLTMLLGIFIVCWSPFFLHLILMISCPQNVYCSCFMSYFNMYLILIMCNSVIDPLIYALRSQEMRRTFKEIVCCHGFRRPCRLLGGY", "assay": "Functional bioassay (CRE/β-galactosidase reporter), agonist activity at mMC5R", "type": "cell-based", "settings": "HEK-293 cells stably expressing receptor; ± SEM", "procedure": "(§1) For cell culture and transfection, briefly, HEK-293 cells were maintained in Dulbecco's modified Eagle's medium (DMEM) with 10% fetal calf serum and seeded 1 day prior to transfection at 1 to 2×10^6 cell/100-mm dish. Melanocortin receptor DNA in the pcDNA3 expression vector (20 μg) were transfected using the calcium phosphate method. Stable receptor populations were generated using G418 selection (1 mg/mL) for subsequent bioassay analysis.\n(§2) In the functional bioassay studies, HEK-293 cells stably expressing the melanocortin receptors were transfected with 4 μg CRE/β-galactosidase reporter gene as previously described in the literature. Briefly, 5,000 to 15,000 post transfection cells were plated into 96 well Primera plates (Falcon) and incubated overnight. […] The sample absorbance, OD405, was measured using a 96 well plate reader (Molecular Devices). The relative protein was determined by adding 200 μL 1:5 dilution Bio Rad G250 protein dye:water to the 10 μL cell lysate sample taken previously, and the OD595 was measured on a 96 well plate reader (Molecular Devices). […]\n(§3) The pA2 values were generated using the Schild analysis method [Schild, H. O. pA2, A New Scale for the Measurement of Drug Antagonism. […] EC50 and pA2 estimates, and their associated standard errors, were determined by fitting the data to a nonlinear least-squares analysis using the PRISM program (v3.0, GraphPad Inc.)."}, "[4]": {"biological_target": "T3, mMC4R (Mus musculus, UniProt P56450)", "T3 construct": "expressed in transfected cells; host or cells: HEK-293", "T3 sequence (P56450 whole entry)": "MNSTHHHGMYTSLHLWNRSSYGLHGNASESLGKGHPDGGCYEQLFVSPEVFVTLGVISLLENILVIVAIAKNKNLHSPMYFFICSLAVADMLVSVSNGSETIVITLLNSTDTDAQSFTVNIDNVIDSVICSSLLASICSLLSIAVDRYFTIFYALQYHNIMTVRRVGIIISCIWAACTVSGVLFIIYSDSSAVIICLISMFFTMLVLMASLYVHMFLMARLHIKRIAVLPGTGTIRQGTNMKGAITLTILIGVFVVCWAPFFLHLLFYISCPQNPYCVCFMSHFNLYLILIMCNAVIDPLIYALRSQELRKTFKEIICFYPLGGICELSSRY", "assay": "Functional bioassay (CRE/β-galactosidase reporter), agonist activity at mMC4R", "type": "cell-based", "settings": "HEK-293 cells stably expressing receptor; ± SEM", "procedure": "as §1, §2, §3"}, "[5]": {"tested_on": "food intake", "settings": "central / ICV administration to rodents, literature, cited from earlier work"}}, "note": "Read-outs that look alike come from different tables or passages of the source.", "data": [{"compound": "c[Asp-(racemic)Atc-DPhe-Arg-Trp-Lys]-NH2", "values": [{"measurement": "EC50", "setting": "[1]", "value": 65, "unit": "nM"}, {"measurement": "agonist activity at the hMC3R (in words)", "setting": "[2]", "value": "only slight agonist activity"}]}, {"compound": "CC(=O)N[C@@H](Cc1c[nH]cn1)C(=O)N[C@H](Cc1ccccc1)C(=O)N[C@@H](CCCNC(=N)N)C(=O)N[C@@H](Cc1c[nH]c2ccccc12)C(N)=O", "note": "[JRH279-31, Ac-His-DPhe-Arg-Trp-NH2]", "values": [{"measurement": "EC50", "setting": "[3]", "value": "3.96 ± 0.94", "unit": "nM"}, {"measurement": "EC50", "setting": "[4]", "value": "17.2 ± 2.78", "unit": "nM"}]}, {"compound": "Ac-Nle-c[Asp-His-DNal(2′)-Arg-Trp-Lys]-NH2 [SHU91 19]", "values": [{"measurement": "effect on food intake", "setting": "[5]", "value": "increased food intake"}, {"measurement": "effect on food intake", "setting": "[5]; listed as SHU-9119", "value": "can induce hyperphagia"}]}]}
